The results in this text go back to BindingDB's records for patent US10308662 (Signal Rx Pharmaceuticals, 2019).

This assay concerns the target T1, Bromodomain-containing protein 4 [349-460] (Homo sapiens, UniProt O60885).
T1 construct: 349-460
Kind of assay: in vitro […] inhibition assay.

The term IC50 denotes the concentration that inhibits the measured activity by half.

Description: Inhibitory activity can be determined routinely using known methods and also from commercial vendors offering this service for kinases and bromodomain proteins. […] The activity of a compound of the invention as an inhibitor of a bromodomain-containing protein, such as a BET protein, such as BRD2, BRD3, BRD4, and/or BRDT, or an isoform or mutant thereof, may be determined in vitro, in vivo, or in a cell line. In vitro assays include assays that determine inhibition of bromodomain-containing proteins. Alternatively, inhibitor binding may be determined by running a competition experiment where a provided compound is incubated with a bromodomain-containing protein, such as a BET protein bound to known ligands, labeled or unlabeled. For example, bromodomain inhibition can be determined in vitro using Alpha Screen Technology (http://www.reactionbiology.com/webapps/site/NewsPDFs/Bromodomain%20Assay%20Platform%20for%20Drug%20Screening%20and%20Discovery.pdf).

Take `CCOC(=O)c1ccc(-c2csc3c(=O)cc(N4CCSCC4)oc23)cc1` [US10308662, Compound 125]: the IC50 worked out at 1.87 µM.
